# According to PubChem BioAssay (NCI):
#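 The compound was tested at five concentrations on cells cultured in 96-well plates, with a 48-hour exposure period. GI50 = concentration required for 50% inhibition of growth. TGI: concentration producing complete growth inhibition.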
# Tests used:
# Test in all cases: growth of human tumour cells (NCI), 48 h
# [1] = test system: HS 578T breast
# [2] = test system: A498 renal
# [3] = test system: NCI-H226 lung
# [4] = test system: HL-60(TB) leukemia
# [5] = test system: IGROV1 ovarian
# [6] = test system: SN12C renal
# [7] = test system: MDA-MB-231 breast
# [8] = test system: RXF 393 renal
# [9] = test system: T-47D breast
# [10] = test system: EKVX NSCLC
# [11] = test system: HOP-92 NSCLC
# [12] = test system: HCT-116 colon
# [13] = test system: SR leukemia
# [14] = test system: SNB-75 CNS
# [15] = test system: RPMI-8226 leukemia
# [16] = test system: HOP-62 NSCLC
# [17] = test system: UO-31 renal
# [18] = test system: PC-3 prostate
# [19] = test system: SK-MEL-5 melanoma
# [20] = test system: MCF7 breast
# [21] = test system: A549 NSCLC
# [22] = test system: KM12 colon
# [23] = test system: COLO 205 colon
# [24] = test system: OVCAR-3 ovarian
# [25] = test system: SF-539 CNS
# [26] = test system: SF-295 CNS
# [27] = test system: M14 melanoma
# [28] = test system: HCT-15 colon
# [29] = test system: NCI-H23 lung
# [30] = test system: SF-268 CNS
# [31] = test system: TK-10 renal
# [32] = test system: OVCAR-4 ovarian
# [33] = test system: OVCAR-8 ovarian
# [34] = test system: OVCAR-5 ovarian
# [35] = test system: SNB-19 CNS
# [36] = test system: BT-549 breast
# [37] = test system: MDA-MB-435
# [38] = test system: NCI-H460 lung
# [39] = test system: U251 CNS
# [40] = test system: SW-620 colon
# [41] = test system: SK-OV-3 ovarian
# [42] = test system: SK-MEL-28 melanoma
# [43] = test system: MOLT-4 leukemia
# [44] = test system: DU-145 prostate
# [45] = test system: LOX IMVI melanoma
# [46] = test system: HT29 colon
# [47] = test system: CAKI-1 renal
# [48] = test system: UACC-62 melanoma
# [49] = test system: NCI-H522 lung
# [50] = test system: 786-0 renal
# [51] = test system: ACHN renal
# [52] = test system: K-562 leukemia
# [53] = test system: SK-MEL-2 melanoma
# [54] = test system: NCI/ADR-RES ovarian
# [55] = test system: HCC-2998 colon
# [56] = test system: CCRF-CEM leukemia
# [57] = test system: MALME-3M melanoma
# [58] = test system: UACC-257 melanoma
smiles,measurement,setting,value
Nc1nccc2c([N+](=O)[O-])cccc12,GI50,[1],52 µg/mL
same,GI50,[2],31.7 µg/mL
same,GI50,[3],87.4 µg/mL
same,GI50,[4],78.3 µg/mL
same,GI50,[5],86.3 µg/mL
same,GI50,[6],92.9 µg/mL
same,GI50,[7],92 µg/mL
same,GI50,[8],87.4 µg/mL
same,GI50,[9],77.1 µg/mL
same,GI50,[10],5.93 µg/mL
same,TGI,[10],48.8 µg/mL
same,GI50,[11],21.4 µg/mL
same,GI50,[12],84.3 µg/mL
same,GI50,[13],25.7 µg/mL
same,GI50,[14],55.3 µg/mL
same,GI50,[15],40.4 µg/mL
same,GI50,[16],61.5 µg/mL
same,GI50,[17],53.4 µg/mL
CCOC1Oc2ccc(C)cc2C(=O)/C1=C\Nc1ccc(S(N)(=O)=O)cc1 (configuration not stated),GI50,[18],16.6 µM
same,TGI,[18],> 50 µM
same,GI50,[1],14.5 µM
same,TGI,[1],42.6 µM
same,GI50,[19],7.79 µM
same,TGI,[19],17.3 µM
same,GI50,[20],15.9 µM
same,TGI,[20],> 50 µM
same,GI50,[21],13.9 µM
same,TGI,[21],> 50 µM
same,GI50,[22],12 µM
same,TGI,[22],32.5 µM
same,GI50,[23],16.8 µM
same,TGI,[23],45.3 µM
same,GI50,[24],12.5 µM
same,TGI,[24],36.5 µM
same,GI50,[25],7.49 µM
same,TGI,[25],24.2 µM
same,GI50,[26],12.6 µM
same,TGI,[26],35.7 µM
same,GI50,[27],9.32 µM
same,TGI,[27],21.5 µM
same,GI50,[2],17 µM
same,TGI,[2],46.5 µM
same,GI50,[28],12.5 µM
same,TGI,[28],> 50 µM
same,GI50,[29],2.92 µM
same,TGI,[29],12.4 µM
same,GI50,[30],16.1 µM
same,TGI,[30],> 50 µM
same,GI50,[31],15.7 µM
same,TGI,[31],> 50 µM
same,GI50,[3],22.3 µM
same,TGI,[3],> 50 µM
same,GI50,[4],9.48 µM
same,TGI,[4],27.4 µM
same,GI50,[5],15 µM
same,TGI,[5],> 50 µM
same,GI50,[32],15.2 µM
same,TGI,[32],> 50 µM
same,GI50,[33],9.97 µM
same,TGI,[33],27.7 µM
same,GI50,[34],0.0219 µM
same,TGI,[34],14.1 µM
same,GI50,[35],16.1 µM
same,TGI,[35],> 50 µM
same,GI50,[6],11.6 µM
same,TGI,[6],31.9 µM
same,GI50,[36],10.1 µM
same,TGI,[36],35.2 µM
same,GI50,[7],11.7 µM
same,TGI,[7],35.5 µM
same,GI50,[37],10 µM
same,TGI,[37],23.8 µM
same,GI50,[38],17 µM
same,TGI,[38],> 50 µM
same,GI50,[39],12.9 µM
same,TGI,[39],> 50 µM
same,GI50,[40],15.3 µM
same,TGI,[40],> 50 µM
same,GI50,[8],8.92 µM
same,TGI,[8],21.3 µM
same,GI50,[41],17.7 µM
same,TGI,[41],> 50 µM
same,GI50,[42],14.5 µM
same,TGI,[42],> 50 µM
same,GI50,[43],13.9 µM
same,TGI,[43],> 50 µM
same,GI50,[10],9.43 µM
same,TGI,[10],31.4 µM
same,GI50,[44],12.9 µM
same,TGI,[44],35.7 µM
same,GI50,[11],8.9 µM
same,TGI,[11],29.6 µM
same,GI50,[45],13.7 µM
same,TGI,[45],> 50 µM
same,GI50,[46],15.6 µM
same,TGI,[46],> 50 µM
same,GI50,[47],10.6 µM
same,TGI,[47],23.3 µM
same,GI50,[12],6.62 µM
same,TGI,[12],14.9 µM
same,GI50,[13],9.23 µM
same,TGI,[13],> 50 µM
same,GI50,[14],18.5 µM
same,TGI,[14],> 50 µM
same,GI50,[48],12.5 µM
same,TGI,[48],38.2 µM
same,GI50,[49],> 50 µM
same,TGI,[49],> 50 µM
same,GI50,[50],6.88 µM
same,TGI,[50],13.6 µM
same,GI50,[51],12.6 µM
same,TGI,[51],45 µM
same,GI50,[52],15.2 µM
same,TGI,[52],> 50 µM
same,GI50,[53],24.3 µM
same,TGI,[53],> 50 µM
same,GI50,[54],6.14 µM
same,TGI,[54],18.5 µM
same,GI50,[15],6.21 µM
same,TGI,[15],25.2 µM
same,GI50,[16],11 µM
same,TGI,[16],35.1 µM
same,GI50,[17],13.7 µM
same,TGI,[17],> 50 µM
O=C(O)c1cc2ccccc2c(N=Nc2ccc(S(=O)(=O)Nc3ncccn3)cc2)c1O,TGI,[18],> 100 µM
same,TGI,[1],> 100 µM
same,TGI,[19],> 100 µM
same,TGI,[20],> 100 µM
same,TGI,[55],> 100 µM
same,TGI,[21],> 100 µM
same,TGI,[22],> 100 µM
same,TGI,[23],> 100 µM
same,TGI,[24],> 100 µM
same,TGI,[25],> 100 µM
same,TGI,[26],> 100 µM
same,TGI,[27],> 100 µM
same,TGI,[56],> 100 µM
same,TGI,[28],> 100 µM
same,TGI,[30],> 100 µM
same,TGI,[31],> 100 µM
same,TGI,[3],> 100 µM
same,TGI,[4],> 100 µM
same,TGI,[5],> 100 µM
same,TGI,[32],> 100 µM
same,TGI,[33],> 100 µM
same,TGI,[34],> 100 µM
same,TGI,[35],> 100 µM
same,TGI,[36],> 100 µM
same,TGI,[7],> 100 µM
same,TGI,[37],> 100 µM
same,TGI,[38],> 100 µM
same,TGI,[39],> 100 µM
same,TGI,[40],> 100 µM
same,TGI,[8],> 100 µM
same,TGI,[41],> 100 µM
same,TGI,[42],> 100 µM
same,TGI,[43],> 100 µM
same,TGI,[10],> 100 µM
same,TGI,[11],> 100 µM
same,TGI,[46],> 100 µM
same,TGI,[47],> 100 µM
same,TGI,[12],> 100 µM
same,TGI,[13],> 100 µM
same,TGI,[57],> 100 µM
same,TGI,[14],> 100 µM
same,TGI,[48],> 100 µM
same,TGI,[49],> 100 µM
same,TGI,[50],> 100 µM
same,TGI,[51],> 100 µM
same,TGI,[52],> 100 µM
same,TGI,[53],> 100 µM
same,TGI,[54],> 100 µM
same,TGI,[58],> 100 µM
same,TGI,[15],> 100 µM
same,TGI,[16],> 100 µM
same,TGI,[17],> 100 µM
O=C(NCCN1CCCCC1)c1cccc(I)c1,TGI,[18],> 100 µM
same,TGI,[1],> 100 µM
same,TGI,[19],> 100 µM
same,TGI,[20],> 100 µM
same,TGI,[55],> 100 µM
same,TGI,[21],> 100 µM
same,TGI,[22],> 100 µM
same,TGI,[24],> 100 µM
same,TGI,[25],> 100 µM
same,TGI,[27],> 100 µM
same,TGI,[2],> 100 µM
same,TGI,[56],> 100 µM
same,TGI,[28],> 100 µM
same,TGI,[29],> 100 µM
same,TGI,[30],> 100 µM
same,TGI,[31],> 100 µM
same,TGI,[3],> 100 µM
same,TGI,[4],> 100 µM
same,TGI,[5],> 100 µM
same,TGI,[32],> 100 µM
same,TGI,[33],> 100 µM
same,TGI,[34],> 100 µM
same,TGI,[35],> 100 µM
same,TGI,[6],> 100 µM
same,TGI,[36],> 100 µM
same,TGI,[38],> 100 µM
same,TGI,[39],> 100 µM
same,TGI,[40],> 100 µM
same,TGI,[8],> 100 µM
same,TGI,[41],> 100 µM
same,TGI,[42],> 100 µM
same,TGI,[43],> 100 µM
same,TGI,[10],> 100 µM
same,TGI,[11],> 100 µM
same,TGI,[45],> 100 µM
same,TGI,[46],> 100 µM
same,TGI,[47],> 100 µM
same,TGI,[13],> 100 µM
same,TGI,[14],> 100 µM
same,TGI,[48],> 100 µM
same,TGI,[50],> 100 µM
same,TGI,[51],> 100 µM
same,TGI,[52],> 100 µM
same,TGI,[54],> 100 µM
same,TGI,[15],> 100 µM
same,TGI,[17],> 100 µM
